Experimental data reported in patent US10189816B2, “Substituted pyridines as inhibitors of human immunodeficiency virus replication” (priority 2015, dated 2019).
Like-named read-outs stand apart in the source and are kept apart here.

Tested on: NL-RLuc virus
Experiment: Inhibition of HIV replication (NL-RLuc reporter virus in MT-2 cells, luciferase readout)
Type: cell-based
Conditions: Human immunodeficiency virus 1, MT2, 120 h
In short: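 Antiviral EC50 came from luciferase signal after 5-day multicycle replication of NL-RLuc virus in MT-2 cells with serially diluted compound (RPMI 1640, 10% heat-inactivated FBS), fitted by the median effect equation over at least 2 experiments.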

In the case of Cc1nc(C)c([C@H](OC(C)(C)C)C(=O)O)c(N2CCC(C)(C)CC2)c1-c1ccc2c(c1)CCN(Cc1cccc(OC(C)C)c1)C2 [Compound 154, (S)-2-(tert-butoxy)-2-(4-(4,4-dimethylpiperidin-1-yl)-5-(2-(3-isopropoxybenzyl)-1,2,3,4-tetrahydroisoquinolin-6-yl)-2,6-dimethylpyridin-3-yl)acetic acid], the EC50 (read-out: Activity) is reported as < 0.1 µM.

Cc1nc(C)c([C@H](OC(C)(C)C)C(=O)O)c(N2CCC(C)(C)CC2)c1-c1ccc2c(c1)CCN(Cc1ccc3c(c1)CCCO3)C2 [Compound 155, (S)-2-(tert-butoxy)-2-(5-(2-(chroman-6-ylmethyl)-1,2,3,4-tetrahydroisoquinolin-6-yl)-4-(4,4-dimethylpiperidin-1-yl)-2,6-dimethylpyridin-3-yl)acetic acid] was tested, and the EC50 (read-out: Activity) was < 0.1 µM.

In the case of Cc1nc(C)c([C@H](OC(C)(C)C)C(=O)O)c(N2CCC(C)(C)CC2)c1-c1ccc2c(c1)CCN(Cc1ccc3c(c1)OCCO3)C2 [Compound 156, (S)-2-(tert-butoxy)-2-(5-(2-((2,3-dihydrobenzo[b][1,4]dioxin-6-yl)methyl)-1,2,3,4-tetrahydroisoquinolin-6-yl)-4-(4,4-dimethylpiperidin-1-yl)-2,6-dimethylpyridin-3-yl)acetic acid], the EC50 (read-out: Activity) is reported as < 0.1 µM and the EC50 (read-out: EC50 μM) is reported as 0.008 µM.

With Cc1nc(C)c([C@H](OC(C)(C)C)C(=O)O)c(N2CCC(C)(C)CC2)c1-c1ccc2c(c1)CCN(Cc1ccc(OC(F)F)c(OC(F)F)c1)C2 [Compound 157, (S)-2-(5-(2-(3,4-bis(difluoromethoxy)benzyl)-1,2,3,4-tetrahydroisoquinolin-6-yl)-4-(4,4-dimethylpiperidin-1-yl)-2,6-dimethylpyridin-3-yl)-2-(tert-butoxy)acetic acid] the EC50 (read-out: Activity) was < 0.1 µM.

In the case of Cc1nc(C)c([C@H](OC(C)(C)C)C(=O)O)c(N2CCC(C)(C)CC2)c1-c1ccc2c(c1)CCN(Cc1cccc3c1OCCO3)C2 [Compound 158, (S)-2-(tert-butoxy)-2-(5-(2-((2,3-dihydrobenzo[b][1,4]dioxin-5-yl)methyl)-1,2,3,4-tetrahydroisoquinolin-6-yl)-4-(4,4-dimethylpiperidin-1-yl)-2,6-dimethylpyridin-3-yl)acetic acid], the EC50 (read-out: Activity) is reported as < 0.1 µM.

With Cc1nc(C)c([C@H](OC(C)(C)C)C(=O)O)c(N2CCC(C)(C)CC2)c1-c1ccc2c(c1)CCN(Cc1c(F)cccc1Oc1ccccc1)C2 [Compound 159, (S)-2-(tert-butoxy)-2-(4-(4,4-dimethylpiperidin-1-yl)-5-(2-(2-fluoro-6-phenoxybenzyl)-1,2,3,4-tetrahydroisoquinolin-6-yl)-2,6-dimethylpyridin-3-yl)acetic acid] the EC50 (read-out: Activity) was < 0.1 µM.

Cc1cc(OC(C)C)cc(C)c1CN1CCc2cc(-c3c(C)nc(C)c([C@H](OC(C)(C)C)C(=O)O)c3N3CCC(C)(C)CC3)ccc2C1 [Compound 160, (S)-2-(tert-butoxy)-2-(4-(4,4-dimethylpiperidin-1-yl)-5-(2-(4-isopropoxy-2,6-dimethylbenzyl)-1,2,3,4-tetrahydroisoquinolin-6-yl)-2,6-dimethylpyridin-3-yl)acetic acid] was tested, and the EC50 (read-out: Activity) was < 0.1 µM.

For Cc1ccc(CN2CCc3cc(-c4c(C)nc(C)c([C@H](OC(C)(C)C)C(=O)O)c4N4CCC(C)(C)CC4)ccc3C2)cc1C [Compound 161, (S)-2-(tert-butoxy)-2-(5-(2-(3,4-dimethylbenzyl)-1,2,3,4-tetrahydroisoquinolin-6-yl)-4-(4,4-dimethylpiperidin-1-yl)-2,6-dimethylpyridin-3-yl)acetic acid], the EC50 (read-out: Activity) was < 0.1 µM.

In the case of Cc1nc(C)c([C@H](OC(C)(C)C)C(=O)O)c(N2CCC(C)(C)CC2)c1-c1ccc2c(c1)CCN(Cc1ccc(C3(C#N)CC3)cc1)C2 [Compound 162, (S)-2-(tert-butoxy)-2-(5-(2-(4-(1-cyanocyclopropyl)benzyl)-1,2,3,4-tetrahydroisoquinolin-6-yl)-4-(4,4-dimethylpiperidin-1-yl)-2,6-dimethylpyridin-3-yl)acetic acid], the EC50 (read-out: Activity) is reported as < 0.1 µM.

CCCCCCCCCOc1ccc(CN2CCc3cc(-c4c(C)nc(C)c([C@H](OC(C)(C)C)C(=O)O)c4N4CCC(C)(C)CC4)ccc3C2)cc1 [Compound 163, (S)-2-(tert-butoxy)-2-(4-(4,4-dimethylpiperidin-1-yl)-2,6-dimethyl-5-(2-(4-(nonyloxy)benzyl)-1,2,3,4-tetrahydroisoquinolin-6-yl)pyridin-3-yl)acetic acid] was tested, and the EC50 (read-out: Activity) was < 0.1 µM and the EC50 (read-out: EC50 μM) was 0.076 µM.

For Cc1cccc(Cl)c1CN1CCc2cc(-c3cnc(C)c([C@H](OC(C)(C)C)C(=O)O)c3N3CCC(C)(C)CC3)ccc2C1 [Compound 164, (S)-2-(tert-Butoxy)-2-(5-(2-(2-chloro-6-methylbenzyl)-1,2,3,4-tetrahydroisoquinolin-6-yl)-4-(4,4-dimethylpiperidin-1-yl)-2-methylpyridin-3-yl)acetic acid], the EC50 (read-out: Activity) was < 0.1 µM and the EC50 (read-out: EC50 μM) was 0.003 µM.

In the case of Cc1ccccc1CN1CCc2cc(-c3cnc(C)c([C@H](OC(C)(C)C)C(=O)O)c3N3CCC(C)(C)CC3)ccc2C1 [Compound 165, (S)-2-(tert-Butoxy)-2-(4-(4,4-dimethylpiperidin-1-yl)-2-methyl-5-(2-(2-methylbenzyl)-1,2,3,4-tetrahydroisoquinolin-6-yl)pyridin-3-yl)acetic acid], the EC50 (read-out: Activity) is reported as < 0.1 µM.

For Cc1cccc(Cl)c1CN1CCc2cc(-c3c(C)nc(C)c([C@H](OC(C)(C)C)C(=O)O)c3N3CCCC(C)(C)C3)ccc2C1 [Compound 166, (S)-2-(tert-butoxy)-2-(5-(2-(2-chloro-6-methylbenzyl)-1,2,3,4-tetrahydroisoquinolin-6-yl)-4-(3,3-dimethylpiperidin-1-yl)-2,6-dimethylpyridin-3-yl)acetic acid], the EC50 (read-out: Activity) was < 0.1 µM and the EC50 (read-out: EC50 μM) was 0.023 µM.
